“Also recorded” adds a separate entry of the source. Where two headings read alike, the source gives them in different places.
Legend:
CB2 receptor [1] = conditions: cited from earlier work
CB1 receptor [2] = conditions: cited from earlier work
human CB2 receptor [3] = target: T1, human CB2 receptor (Homo sapiens, UniProt P34972); assay: cAMP accumulation assay, CHO cells stably expressing CB2; format: cell-based; conditions: for CB2 receptor activation in cAMP accumulation assay (in words): compound at 10 µM, normalized to CP55,940 (1 µM)
T1 construct: expressed in transfected cells; host or cells: CHO cells (membrane preparations)
Protocol: (§1) cAMP accumulation assays were performed also as previously described. Briefly, CHO cells stably expressing the respective human CB receptor subtype CB1 or CB2 were seeded overnight. […] After incubation for 15 min the buffer was removed, and the cells were lyzed. The amount of cAMP was determined in a radioligand binding assay by incubating 50 µL of the cell lysate with 3 nM [^3H]cAMP in the presence of protein preparations from bovine adrenal glands (cAMP binding protein). Bound and unbound radioligand were separated by rapid filtration through GF/B filters, and radioactivity was determined by liquid scintillation counting. To test for antagonistic activity, test compounds were added to Hank’s buffered salt solution (HBSS) containing 10% dimethyl sulfoxide (DMSO), 10 min after the application of Ro-20-1724, and the mixture was incubated for 20 min at 37 °C.
(§2) As a next step, we investigated the compounds in cAMP accumulation assays, to obtain information on their functionality (Fig. 3). CB receptors are Gi protein-coupled and thus reduce the levels of cAMP in the cells upon activation.

human GPR18 = target: T2, human GPR18 (Homo sapiens, UniProt Q14330); assay: β-Arrestin PathHunter assay, recombinant CHO cells expressing GPR18; format: cell-based; conditions: for Human GPR18 % activation / Human GPR18 % inhibition: value in parentheses
T2 construct: host or cells: CHO cells
T2 sequence (Q14330 1-331): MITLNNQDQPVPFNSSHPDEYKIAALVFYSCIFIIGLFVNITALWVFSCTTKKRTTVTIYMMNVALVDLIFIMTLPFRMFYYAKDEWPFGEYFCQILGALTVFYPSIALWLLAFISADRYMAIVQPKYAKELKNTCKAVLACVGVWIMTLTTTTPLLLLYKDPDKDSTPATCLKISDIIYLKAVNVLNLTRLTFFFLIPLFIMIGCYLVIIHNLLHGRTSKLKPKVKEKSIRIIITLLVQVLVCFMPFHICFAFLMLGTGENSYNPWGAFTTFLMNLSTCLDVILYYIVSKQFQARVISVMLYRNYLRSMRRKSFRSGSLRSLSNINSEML
Protocol: (§3) β-Arrestin assays were performed in recombinant CHO cells expressing either the human GPR18 or the human GPR55 as described before using the β-galactosidase enzyme fragment complementation technology (β-arrestin PathHunter™ assay; DiscoverX, Fremont, CA, USA).
(§4) The orphan receptors GPR18 and GPR55 can interact with certain natural and synthetic cannabinoids. […] Therefore, we investigated the new series of indole, indazole, benzimidazole and carbazole-derived structures in β-arrestin assays at GPR18 and GPR55 (Table 2). […] For the lipophilic substitutions, the following rank order of potency was observed: ethyl > methyl > chloro > fluoro. Therefore, it can be concluded that a lipophilic substitution in position 4 of the naphthyl residue was a requirement for GPR55 inhibition.

human CB1 receptor [4] = target: T3, human CB1 receptor (Homo sapiens, UniProt P21554); assay: biochemical; format: binding; conditions: [3H]CP55,940 0.1 nM, CHO cell membranes; read-out: Ki ± SEM Human CB1
T3 construct: expressed in transfected cells; host or cells: CHO cells (membrane preparations)

CB1 receptor [5] = target: CB1 receptor; design: method as in Buchler et al. [37]; conditions: versus 0.5 nM [3H]CP55,940; ref Buchler et al. [37]; cited from earlier work
human CB2 receptor [6] = target: T1, human CB2 receptor; assay: biochemical; format: binding; conditions: [3H]CP55,940 0.1 nM, CHO cell membranes; read-out: Ki ± SEM Human CB2
human GPR55 = target: T4, human GPR55 (Homo sapiens, UniProt Q9Y2T6); assay: β-Arrestin PathHunter assay, recombinant CHO cells expressing GPR55; format: cell-based; conditions: for Human GPR55 % activation / Human GPR55 % inhibition: value in parentheses; for Human GPR55 % inhibition: antagonist mode versus LPI 1 µM
T4 construct: host or cells: CHO cells
Protocol: as §3, §4

human CB1 receptor [7] = target: T3, human CB1 receptor; assay: cAMP accumulation assay, CHO cells stably expressing CB1; format: cell-based; conditions: for CB1 receptor activation in cAMP accumulation assay (in words): compound at 10 µM, normalized to CP55,940 (1 µM); for EC50: forskolin 10 µM, read-out: EC50 CB1 receptor activation, cAMP accumulation
Protocol: as §1, §2

CB1 receptor [8] = target: CB1 receptor; design: method as in Wiley et al. [41]; conditions: versus 0.62 nM [3H]CP55,940; ref Wiley et al. [41]; cited from earlier work
CB2 receptor [9] = target: CB2 receptor; design: method as in Wiley et al. [41]; conditions: versus 0.62 nM [3H]CP55,940; ref Wiley et al. [41]; cited from earlier work
CB2 receptor [10] = target: CB2 receptor; design: method as in Bowden et al. [43]; conditions: HTRF cAMP accumulation; ref Bowden et al. [43]; cited from earlier work
CB2 receptor [11] = conditions: membrane potential assay, cited from earlier work
CB1 receptor [12] = conditions: membrane potential assay, cited from earlier work
[13] = agonist mode, read-out: Human GPR18 EC50
[14] = agonist mode, read-out: Human GPR55 EC50
[15] = antagonist mode versus lysophosphatidylinositol (LPI, 1 µM), read-out: Human GPR55 IC50

T4 sequence (Q9Y2T6 whole entry): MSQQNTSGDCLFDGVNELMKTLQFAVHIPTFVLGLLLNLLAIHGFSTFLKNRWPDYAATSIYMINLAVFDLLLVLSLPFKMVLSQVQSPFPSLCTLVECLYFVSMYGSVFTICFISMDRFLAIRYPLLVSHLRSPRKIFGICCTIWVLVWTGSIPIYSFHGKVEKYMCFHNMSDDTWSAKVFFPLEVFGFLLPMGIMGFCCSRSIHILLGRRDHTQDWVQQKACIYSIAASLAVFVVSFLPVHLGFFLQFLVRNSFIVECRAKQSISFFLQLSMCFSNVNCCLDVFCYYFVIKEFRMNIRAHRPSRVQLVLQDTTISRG
T3 sequence (P21554 whole entry): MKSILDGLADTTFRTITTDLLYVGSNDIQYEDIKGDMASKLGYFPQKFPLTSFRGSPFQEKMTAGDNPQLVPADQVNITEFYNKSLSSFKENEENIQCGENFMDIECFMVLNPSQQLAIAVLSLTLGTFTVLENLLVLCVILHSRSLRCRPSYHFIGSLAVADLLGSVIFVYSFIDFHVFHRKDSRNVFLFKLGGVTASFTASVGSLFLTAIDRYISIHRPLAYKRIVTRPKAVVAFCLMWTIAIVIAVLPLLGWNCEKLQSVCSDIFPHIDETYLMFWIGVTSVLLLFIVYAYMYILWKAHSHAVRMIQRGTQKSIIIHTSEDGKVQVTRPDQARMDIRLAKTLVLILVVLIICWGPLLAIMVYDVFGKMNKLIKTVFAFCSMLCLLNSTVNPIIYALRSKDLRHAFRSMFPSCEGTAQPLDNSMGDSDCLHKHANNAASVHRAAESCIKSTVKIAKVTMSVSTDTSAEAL
T1 sequence (P34972 whole entry): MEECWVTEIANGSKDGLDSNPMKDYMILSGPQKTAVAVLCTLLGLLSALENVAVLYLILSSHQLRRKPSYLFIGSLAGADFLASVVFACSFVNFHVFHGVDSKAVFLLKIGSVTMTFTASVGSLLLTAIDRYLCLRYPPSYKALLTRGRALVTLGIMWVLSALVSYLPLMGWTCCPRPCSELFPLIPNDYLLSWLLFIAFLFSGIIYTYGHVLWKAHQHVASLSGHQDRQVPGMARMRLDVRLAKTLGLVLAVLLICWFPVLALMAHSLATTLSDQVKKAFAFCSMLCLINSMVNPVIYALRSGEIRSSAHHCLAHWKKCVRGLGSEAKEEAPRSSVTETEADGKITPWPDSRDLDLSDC

SMILES	EC50 (human GPR18) [nM]	IC50 (human GPR18) [nM]	Human GPR18 % activation (human GPR18; agonist mode)	Human GPR18 % inhibition (human GPR18; antagonist mode)	Ki (human CB1 receptor [4]) [nM]	Ki (human CB2 receptor [6]) [nM]	EC50 (human GPR55) [nM]	IC50 (human GPR55) [nM]	Human GPR55 % activation (human GPR55; agonist mode) [%]	Human GPR55 % inhibition (human GPR55) [%]	also measured
COc1ccc(C(=O)c2c(C)n(CCN3CCOCC3)c3cc(I)ccc23)cc1 [compound 43, AM-630]	–	–	–	–	–	–	–	–	–	–	Ki (CB2 receptor [1]): 31.2 ± 12.4 nM; function at CB2 (in words) (CB2 receptor [1]): antagonist; function at CB1 (in words) (CB1 receptor [2]): partial agonist
NC(=O)[C@H](Cc1ccccc1)NC(=O)c1nn(Cc2ccc(F)cc2)c2ccccc12 [compound 29, APP-FUBINACA]	> 10000	> 10000	4%	21%	56.3 ± 19.8	58.1 ± 17.3	> 10000	> 10000	26	–	CB2 receptor activation in cAMP accumulation assay (in words) (human CB2 receptor [3]): full agonists; Ki (CB1 receptor [5]): 47.6 nM; CB1 receptor activation in cAMP accumulation assay (in words) (human CB1 receptor [7]): partial activation
CC(C)[C@H](NC(=O)c1nn(Cc2cccc(F)c2)c2ccccc12)C(N)=O [compound 18, AB-FUBINACA (3-F-benzyl-isomer)]	> 10000	> 10000	> 10 (10%)	–	12.6 ± 0.7	52.2 ± 10.2	> 10000	> 10000	11	–	Ki (CB1 receptor [5]): 51.1 nM
CC(C)[C@H](NC(=O)c1nn(CC2CCCCC2)c2ccccc12)C(N)=O [compound 20]	> 10000	> 10000	13%	11%	1.72 ± 0.14	1.91 ± 0.2	> 10000	> 10000	8	–	Ki (CB1 receptor [8]): 0.78 nM; Ki (CB2 receptor [9]): 0.45 nM
CCCCCn1cc(C(=O)c2cccc3ccccc23)c2ccccc21 [compound 3, JWH-018, reference compound]	–	–	–	–	1.51 ± 0.67	2.24 ± 1.2	–	–	–	–	Ki (CB2 receptor [1]): 2.9 nM; Ki (CB1 receptor [2]): 9 nM
Cc1ccc(Cn2nc(C(=O)N[C@@H]3C(C)(C)[C@@H]4CC[C@@]3(C)C4)cc2-c2ccc(Cl)c(C)c2)cc1 [compound 44, SR-144,528]	–	–	–	–	–	–	–	–	–	–	function at CB2 (in words) (CB2 receptor [1]): antagonist; Ki (CB1 receptor [2]): 437 ± 33 nM
O=C(c1ccc2c(c1)c1ccccc1n2CCCCCF)c1cccc2ccccc12 [compound 40, EG-2201]	–	–	3%	7%	22.4 ± 12.8	4.36 ± 2.91	–	–	–	3	Emax (human CB2 receptor [3]; CHO, read-out: efficacy at CB2 compared to maximum response of CP55,940, cAMP accumulation): 77%; functional behaviour at CB2 receptor (in words) (human CB2 receptor [3]; cAMP accumulation): agonistic behavior; EC50 (human CB2 receptor [3]; forskolin 10 µM, read-out: EC50 CB2 receptor activation, cAMP accumulation): 5.65 nM; EC50 (human GPR18; [13]): > 10000 nM; IC50 (human GPR18; antagonist mode, read-out: Human GPR18 IC50): > 10000 nM; EC50 (human GPR55; [14]): > 10000 nM; IC50 (human GPR55; [15]): > 10000 nM; Emax (human CB1 receptor [7]; CHO, read-out: efficacy at CB1 compared to maximum response of CP55,940, cAMP accumulation): 94%; functional behaviour at CB1 receptor (in words) (human CB1 receptor [7]; cAMP accumulation): agonistic behavior; EC50 (human CB1 receptor [7]): 15.6 nM
CCCCCn1cc(C(=O)NC(C)(C)c2ccccc2)c2ccccc21 [compound 31, Cumyl-PICA]	> 10000	> 10000	19%	–	3.27 ± 0.32	24 ± 8.8	> 10000	> 10000	11	3	EC50 (CB2 receptor [10]): 13 nM; EC50 (CB2 receptor [11]; ref Longworth et al. [51]): 58.2 nM; EC50 (CB1 receptor [12]; ref Longworth et al. [51]): 4.2 nM
COC(=O)C(NC(=O)c1ccc2c(c1)c1ccccc1n2CC1CCCCC1)C(C)(C)C (stereo not drawn) [compound 41, MDMB-CHMCZCA]	–	–	–	–	5.75 ± 1.65	6.67 ± 1.4	–	–	–	25	functional behaviour at CB2 receptor (in words) (human CB2 receptor [3]; cAMP accumulation): completely lacked CB2 receptor activation; also recorded: antagonist; CB2 receptor activation in cAMP accumulation assay (in words) (human CB2 receptor [3]): failed to evoke an agonistic response; IC50 (human CB2 receptor [3]; read-out: IC50 inhibition of CB2 receptor activation, cAMP accumulation): 807 ± 137 nM; EC50 (human GPR18; [13]): > 10000 nM; IC50 (human GPR18; extrapolated value, full curve could not be determined due to limited solubility, read-out: Human GPR18 IC50 (extrapolated)): 9660 ± 1200 nM; EC50 (human GPR55; [14]): > 10000 nM; IC50 (human GPR55; [15]): > 10000 nM; functional behaviour at CB1 receptor (in words) (human CB1 receptor [7]; cAMP accumulation): full efficacy; also recorded: agonist; EC50 (human CB1 receptor [7]): 120 nM
COC(=O)[C@@H](NC(=O)c1nn(CCCCCF)c2ccccc12)C(C)(C)C [compound 11, 5F-ADB]	> 10000	> 10000	> 10 (10%)	–	23.3 ± 10.2	5.99 ± 2.47	> 10000	> 10000	0	6	CB2 receptor activation in cAMP accumulation assay (in words) (human CB2 receptor [3]): full agonists; EC50 (CB2 receptor [11]; ref Banister et al. [38]): 7.5 nM; EC50 (CB1 receptor [12]; ref Banister et al. [38]): 0.59 nM; CB1 receptor activation in cAMP accumulation assay (in words) (human CB1 receptor [7]): partial activation
COC(=O)[C@@H](NC(=O)c1nn(CC2CCCCC2)c2ccccc12)C(C)C [compound 10]	> 10000	> 10000	19%	> 10 (10%)	0.339 ± 0.073	0.301 ± 0.092	> 10000	> 10000	2	31	EC50 (CB2 receptor [11]; ref Banister et al. [38]): 29 nM; EC50 (CB1 receptor [12]; ref Banister et al. [38]): 5.1 nM
NC(=O)[C@H](Cc1ccccc1)NC(=O)c1nn(CC2CCCCC2)c2ccccc12 [compound 30]	> 10000	~10000	5%	57%	9.81 ± 4.56	4.39 ± 0.59	> 10000	> 10000	11	9	Ki (CB1 receptor [5]): 47.5 nM
CC(C)(C)[C@H](NC(=O)c1cn(CCCCCF)c2ccccc12)C(N)=O [compound 21, 5F-ADBICA]	> 10000	> 10000	27%	–	2.72 ± 0.35	1.83 ± 0.11	> 10000	> 10000	8	–	EC50 (CB2 receptor [11]; ref Banister et al. [42]): 1.2 nM; EC50 (CB1 receptor [12]; ref Banister et al. [42]): 0.77 nM
CC1=CC[C@@H]2[C@@H](C1)c1c(O)cc(C(C)(C)CCCCCCBr)cc1OC2(C)C [compound 45, AM11542]	–	–	–	–	–	–	–	–	–	–	Ki (CB1 receptor [2]; co-crystallized agonist): 0.11 nM
CC(C)(C)[C@H](NC(=O)c1nn(CCCCCF)c2ccccc12)C(N)=O [compound 23, 5F-ADB-PINACA]	> 10000	> 10000	9%	21%	1.43 ± 0.69	0.694 ± 0.078	> 10000	> 10000	18	–	EC50 (CB2 receptor [11]; ref Banister et al. [42]): 2.1 nM; EC50 (CB1 receptor [12]; ref Banister et al. [42]): 0.24 nM
CC(C)[C@H](NC(=O)c1nn(Cc2ccccc2F)c2ccccc12)C(N)=O [compound 19, AB-FUBINACA (2-F-benzyl-isomer)]	> 10000	> 10000	11%	–	6.91 ± 3.42	25 ± 6.1	> 10000	> 10000	15	–	Ki (CB1 receptor [5]): 4.69 nM

Reference: publication PMC6002460, “Pharmacological evaluation of new constituents of “Spice”: synthetic cannabinoids based on indole, indazole, benzimidazole and carbazole scaffolds” (Forensic Toxicology, 2018)
